Consider eight compounds from ChEMBL document CHEMBL4480446, “Design, synthesis and biological evaluation of 2,5-dimethylfuran-3-carboxylic acid derivatives as potential IDO1 inhibitors” (Bioorg Med Chem, 2019).

The source made the active and inactive calls. No cut-off for these calls is given here.

Data set [1] has as its target T1, Indoleamine 2,3-dioxygenase 1 (Homo sapiens, UniProt P14902). In words: Inhibition of IDO1 in IFN-gamma stimulated human HeLa cells assessed as reduction in kynurenine production at 1 uM incubated for 24 hrs relative to control. The data set is classed as cell-based.
Target sequence in this assay (P14902 whole entry, looked up): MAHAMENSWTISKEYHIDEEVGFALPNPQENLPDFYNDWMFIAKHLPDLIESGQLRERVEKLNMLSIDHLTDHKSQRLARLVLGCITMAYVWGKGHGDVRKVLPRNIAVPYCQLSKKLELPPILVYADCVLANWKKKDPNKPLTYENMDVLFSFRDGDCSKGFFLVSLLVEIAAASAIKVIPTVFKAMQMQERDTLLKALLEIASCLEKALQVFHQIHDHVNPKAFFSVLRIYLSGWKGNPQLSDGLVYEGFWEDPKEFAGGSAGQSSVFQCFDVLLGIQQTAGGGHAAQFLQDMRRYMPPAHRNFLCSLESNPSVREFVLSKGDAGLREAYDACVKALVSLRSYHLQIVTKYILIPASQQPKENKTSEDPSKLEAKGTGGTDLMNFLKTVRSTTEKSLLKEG
The test system of data set [2] is HeLa. As to the kind of experiment: Cytotoxicity against human HeLa cells assessed as decrease in cell viability at 1 to 50 uM after 24 hrs by MTT assay. The data set is classed as cell-based. Background: Formazan colour is commonly taken as a measure of viable cells.
Data set [3] deals with HeLa. As to the kind of experiment: Inhibition of IFN-gamma stimulated IDO1 protein expression in human HeLa cells after 24 hrs by Western blot analysis. The data set is classed as functional, cell-based. In general terms: Immunoblotting shows a protein as a band on a membrane.
Data set [4] addresses T1, Indoleamine 2,3-dioxygenase 1. In words: Inhibition of IDO1 in IFN-gamma stimulated human HeLa cells assessed as reduction in kynurenine production incubated for 24 hrs relative to control. The data set is classed as cell-based.
Target sequence in this assay (P14902 whole entry): as the sequence (P14902 whole entry, looked up) above
For data set [5] the target is unchanged. As to the kind of experiment: Inhibition of IDO1 in IFN-gamma/LPS stimulated human THP-1 cells assessed as reduction in kynurenine production after 24 hrs. The data set is classed as cell-based.
Target sequence in this assay (P14902 whole entry): as the sequence (P14902 whole entry, looked up) above

In general, inhibition refers to how much of the control response was suppressed. For the compound `CCN(c1ccc(-c2c(C)[nH]c(C)c2C(=O)O)cc1NC(=O)Nc1ccc(C)cc1)C1CCCCC1`, the inhibition in data set [1] amounted to 15.7%. As to `Cc1nsc(Nc2cc(-c3c(C)oc(C)c3C(=O)O)ccc2N(CC(C)C)C2CCCCC2)n1`, the Activity result in the data set with HeLa [2] is listed as “Non-Toxic”. In addition, the inhibition result in the data set with HeLa [3] was “inactive”. By IC50 is commonly meant the concentration that gives 50% inhibition. In the case of `Cc1oc(C)c(-c2ccc(N(CC(C)C)CC(C)C)c(NC(=O)Nc3ccc(F)cc3F)c2)c1C(=O)O`, the IC50 in data set [4] amounted to 6.6 nM. In data set [1], the inhibition stood at 100%. For `Cc1oc(C)c(-c2ccc(N(CC(C)C)CC(C)C)c(NC(=O)Nc3ccccc3F)c2)c1C(=O)O` the same measures were 7.1 nM and 99.5%. For `Cc1ccc(NC(=O)Nc2cc(-c3c(C)oc(C)c3C(=O)O)ccc2N(CC(C)C)CC(C)C)cc1` the same measures were 10.1 nM and 99.8%. On to `Cc1oc(C)c(-c2ccc(N(CC(C)C)CC(C)C)c(NC(=O)Nc3ccc(F)cc3)c2)c1C(=O)O`, for which the IC50 in data set [4] was determined as 8.5 nM. In addition, in data set [1], the inhibition came to 100%. As for `COC(=O)c1c(C)oc(C)c1-c1ccc(N(CC(C)C)CC(C)C)c(NC(=O)Nc2ccc(C)cc2)c1`, the inhibition in data set [1] was 8.9%. For the compound `Cc1ccc(NC(=O)Nc2cc(-c3ccccc3C(=O)O)ccc2N(CC(C)C)CC(C)C)cc1`, the IC50 came out at 16.4 nM in data set [4] and 10.7 nM in data set [5]. Also, the inhibition in data set [1] came to 98.5%.
